# Measured values as given in paper PMC10314895, “Targeted protein degradation reveals BET bromodomains as the cellular target of Hedgehog pathway inhibitor-1” (Nature Communications, 2023).
# Legend:
# Format in all cases: binding
# BRD3 [1] = target: T1, BRD3 (Homo sapiens, UniProt Q15059); assay: BromoKd affinity assay (Eurofins Discovery)
# BRD4 [2] = target: T2, BRD4 (Homo sapiens, UniProt O60885); assay: BromoKd affinity assay (Eurofins Discovery)
# BRD2 [3] = target: T3, BRD2 (Homo sapiens, UniProt P25440); assay: BromoKd affinity assay (Eurofins Discovery); design: second bromodomain BD2, BRD2(2)
# Target sequence in this assay (P25440 344-453 limits assumed): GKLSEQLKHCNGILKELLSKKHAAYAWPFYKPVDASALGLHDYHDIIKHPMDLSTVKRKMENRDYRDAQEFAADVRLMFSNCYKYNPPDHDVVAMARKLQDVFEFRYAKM
# BRD4 [4] = target: T2, BRD4; assay: BromoKd affinity assay (Eurofins Discovery); cellular degradation competed by HPI-1
# BRD2 [5] = target: T3, BRD2; assay: as above
# Target sequence in this assay (P25440 whole entry): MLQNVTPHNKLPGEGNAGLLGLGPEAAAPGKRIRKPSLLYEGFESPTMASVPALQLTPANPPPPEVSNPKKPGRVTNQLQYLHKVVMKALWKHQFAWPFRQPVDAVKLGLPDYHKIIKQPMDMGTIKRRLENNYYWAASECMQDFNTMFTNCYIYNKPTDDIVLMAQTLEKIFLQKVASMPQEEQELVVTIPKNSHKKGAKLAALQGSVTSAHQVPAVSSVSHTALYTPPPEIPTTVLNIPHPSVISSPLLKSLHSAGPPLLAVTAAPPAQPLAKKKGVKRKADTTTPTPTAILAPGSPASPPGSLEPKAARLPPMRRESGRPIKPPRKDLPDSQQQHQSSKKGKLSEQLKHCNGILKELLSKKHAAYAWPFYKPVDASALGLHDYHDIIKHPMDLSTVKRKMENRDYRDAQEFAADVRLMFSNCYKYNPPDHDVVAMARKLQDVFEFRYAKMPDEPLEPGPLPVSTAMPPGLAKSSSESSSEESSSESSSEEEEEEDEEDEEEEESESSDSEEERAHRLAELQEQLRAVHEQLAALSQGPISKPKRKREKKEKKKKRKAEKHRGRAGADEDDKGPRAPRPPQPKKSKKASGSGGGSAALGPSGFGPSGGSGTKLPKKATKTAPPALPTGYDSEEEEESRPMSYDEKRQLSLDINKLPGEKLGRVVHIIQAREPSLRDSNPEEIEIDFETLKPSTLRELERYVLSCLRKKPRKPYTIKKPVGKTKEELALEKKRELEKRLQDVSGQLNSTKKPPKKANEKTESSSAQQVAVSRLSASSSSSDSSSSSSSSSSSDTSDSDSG
# BRD3 [6] = target: T1, BRD3; assay: as above
# T1 sequence (Q15059 2-726): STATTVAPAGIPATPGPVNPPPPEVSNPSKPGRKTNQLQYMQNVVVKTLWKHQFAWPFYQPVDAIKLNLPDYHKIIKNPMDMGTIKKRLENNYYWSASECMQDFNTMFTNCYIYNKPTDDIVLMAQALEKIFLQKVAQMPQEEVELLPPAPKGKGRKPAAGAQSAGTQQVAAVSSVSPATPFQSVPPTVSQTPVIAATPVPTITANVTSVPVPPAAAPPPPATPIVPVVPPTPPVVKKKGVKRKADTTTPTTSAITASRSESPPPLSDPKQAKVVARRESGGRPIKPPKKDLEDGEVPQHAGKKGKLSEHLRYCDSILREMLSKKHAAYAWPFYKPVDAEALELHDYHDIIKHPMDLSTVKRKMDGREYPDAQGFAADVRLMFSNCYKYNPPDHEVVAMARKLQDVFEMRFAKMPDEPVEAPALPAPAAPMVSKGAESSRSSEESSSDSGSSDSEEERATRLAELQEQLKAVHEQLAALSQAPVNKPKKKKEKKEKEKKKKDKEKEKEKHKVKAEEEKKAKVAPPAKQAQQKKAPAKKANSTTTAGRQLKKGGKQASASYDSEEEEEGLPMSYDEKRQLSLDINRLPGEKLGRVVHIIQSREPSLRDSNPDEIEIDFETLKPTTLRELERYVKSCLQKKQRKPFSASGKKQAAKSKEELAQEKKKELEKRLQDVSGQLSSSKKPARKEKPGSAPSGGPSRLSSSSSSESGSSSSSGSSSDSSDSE
Kd (BRD3 [1]) [µM],Kd (BRD4 [2]) [µM],Kd (BRD2 [3]) [µM],Kd (BRD4 [4]) [µM],Kd (BRD2 [5]) [µM],Kd (BRD3 [6]) [µM],SMILES
~0.015,~0.015,0.017,–,–,–,COCCOC(=O)C1=C(C)NC2=C(C(=O)CC(c3ccccc3OC)C2)C1c1cccc(O)c1 (stereo not drawn) [HPI-1]
–,–,–,~0.2,~0.2,~0.2,COCCOC(=O)C1=C(C)NC2=C(C(=O)CC(c3ccccc3OC)C2)C1c1cccc(OCc2cn(CCCCCCOc3cccc4c3C(=O)N(C3CCC(=O)NC3=O)C4=O)nn2)c1 (stereo not drawn) [HPP-9]
